Read-outs that look alike come from different tables or passages of the source. Numbered stars: 1 amine (or outer) side, 2 acyl side, 3 side chain; on linkers, the order of the positions; unused ones are H or OH. Bridge positions count the residues as written; N and C are the ends. Square brackets hold non-standard residues; d marks the D form. Peptide text beside a SMILES is read from it. * marks the point of attachment. hTyr(3S-OH,4S-OH,3'-OSO3H) = N[C@H](C(=O)O)[C@H](O)[C@@H](O)c1ccc(O)c(OS(=O)(=O)O)c1; Orn(4R-OH,5R-OH) = O=C([C@H](C[C@@H](O)[C@@H](O)N[*:3])N[*:1])[*:2]; Pro(3S-OH,4S-Me) = C[C@H]1CN[C@H](C(=O)O)[C@H]1O; X1 = CCCCCOc1ccc(-c2cc(-c3ccc(C(=O)*)cc3)no2)cc1; Gln(3R-OH) = NC(=O)C[C@@H](O)[C@H](N)C(=O)O; Hyp = O=C(O)[C@@H]1C[C@@H](O)CN1
What was measured:
Assay type in all cases: cell-based
Candida auris = experiment: MIC determination against clinical isolates of Candida auris (CLSI M27, 4th edition); conditions: Candidozyma auris
From the text: (§1) MIC: Minimum Inhibitory Concentration (MIC) is defined as the lowest concentration of an antimicrobial ingredient that is bacteriostatic.
(§2) Testing has been performed in triplicates for each isolate.

Mucor circinelloides = experiment: MIC determination against ATCC and clinical isolates of the order Mucorales (CLSI M27, 4th edition)
From the text: as §1, §2

Rhizopus oryzae = experiment: MIC determination against clinical isolates of the order Mucorales (CLSI M27, 4th edition); conditions: Rhizopus arrhizus, strain 2086, clinical strain
From the text: as §1, §2

Rhizopus microsporus = experiment: as above; conditions: strain 3435, clinical strain
From the text: as §1, §2

Measured: MIC

CCCCCOc1ccc(-c2cc(-c3ccc(C(=O)N[C@H]4C[C@@H](O)[C@@H](O)NC(=O)[C@@H]5[C@@H](O)[C@@H](C)CN5C(=O)[C@H]([C@H](O)CC(N)=O)NC(=O)[C@H]([C@H](O)[C@@H](O)c5ccc(O)c(OS(=O)(=O)O)c5)NC(=O)[C@@H]5C[C@@H](O)CN5C(=O)[C@H]([C@@H](C)O)NC4=O)cc3)no2)cc1 [Micafungin] (X1-[Orn(4R-OH,5R-OH)]T[Hyp][hTyr(3S-OH,4S-OH,3'-OSO3H)][Gln(3R-OH)][Pro(3S-OH,4S-Me)]; lactam 1-C)
0.25 µg/mL: Candida auris; read-out: MIC values, strain III.7 (No 12), clade III/Switzerland | Candida auris; read-out: MIC values, strain III.8 (No 13), clade III/Israel | Candida auris; read-out: MIC values, strain III.9 (No 14), clade III/Israel | Candida auris; read-out: MIC values, strain IV.10 (No 7), clade IV/Israel | Candida auris; read-out: MIC values, strain IV.11 (No 8), clade IV/Israel | Candida auris; read-out: MIC values, strain IV.12 (No 9), clade IV/Israel | Candida auris; read-out: MIC values, strain IV.13 (No 10), clade IV/Israel | Candida auris; read-out: MIC values, strain IV.7 (No 21), clade IV/Colombia | Candida auris; read-out: MIC values, strain IV.8 (No 22), clade IV/Colombia | Candida auris; read-out: MIC values, strain IV.9 (No 6), clade IV/Israel
> 1020 µg/mL: Candida auris; read-out: MIC values, strain I.3 (No 3), clade I/India
0.5 µg/mL: Candida auris; read-out: MIC values, strain IV.14 (No 11), clade IV/Israel
0.125 µg/mL: Candida auris; read-out: MIC values, strain I.2 (No 2), clade I/India | Candida auris; read-out: MIC values, strain I.4 (No 4), clade I/India | Candida auris; read-out: MIC values, strain II.1 (No 5), clade II/Japan | Candida auris; read-out: MIC values, strain II.2 (No 1), clade II/India | Candida auris; read-out: MIC values, strain IV.1 (No 15), clade IV/Colombia | Candida auris; read-out: MIC values, strain IV.2 (No 16), clade IV/Colombia | Candida auris; read-out: MIC values, strain IV.3 (No 17), clade IV/Colombia | Candida auris; read-out: MIC values, strain IV.4 (No 18), clade IV/Colombia | Candida auris; read-out: MIC values, strain IV.5 (No 19), clade IV/Colombia | Candida auris; read-out: MIC values, strain IV.6 (No 20), clade IV/Colombia

CC[C@@H]([C@H](C)O)n1ncn(-c2ccc(N3CCN(c4ccc(OC[C@@H]5CO[C@@](Cn6cncn6)(c6ccc(F)cc6F)C5)cc4)CC3)cc2)c1=O [Posaconazole]
0.25 µg/mL: Rhizopus oryzae
0.5 µg/mL: Mucor circinelloides; strain 2109, clinical strain | Mucor circinelloides; strain 2707, clinical strain | Rhizopus microsporus
1 µg/mL: Mucor circinelloides; ATCC24905, strain ATCC 24905, ATCC strain | Mucor circinelloides; strain 4280, clinical strain

C[C@@H](c1ncncc1F)[C@](O)(Cn1cncn1)c1ccc(F)cc1F [Voriconazole]
1 µg/mL: Candida auris; strain I.2 (No 2), clade I/India, read-out: MIC values | Candida auris; strain I.4 (No 4), clade I/India, read-out: MIC values | Candida auris; strain II.2 (No 1), clade II/India, read-out: MIC values | Candida auris; strain IV.12 (No 9), clade IV/Israel, read-out: MIC values | Candida auris; strain IV.14 (No 11), clade IV/Israel, read-out: MIC values | Candida auris; strain IV.2 (No 16), clade IV/Colombia, read-out: MIC values | Candida auris; strain IV.3 (No 17), clade IV/Colombia, read-out: MIC values | Candida auris; strain IV.9 (No 6), clade IV/Israel, read-out: MIC values
2 µg/mL: Candida auris; strain I.3 (No 3), clade I/India, read-out: MIC values | Candida auris; strain III.7 (No 12), clade III/Switzerland, read-out: MIC values | Candida auris; strain III.8 (No 13), clade III/Israel, read-out: MIC values | Candida auris; strain III.9 (No 14), clade III/Israel, read-out: MIC values
0.5 µg/mL: Candida auris; strain IV.10 (No 7), clade IV/Israel, read-out: MIC values | Candida auris; strain IV.11 (No 8), clade IV/Israel, read-out: MIC values | Candida auris; strain IV.13 (No 10), clade IV/Israel, read-out: MIC values | Candida auris; strain IV.4 (No 18), clade IV/Colombia, read-out: MIC values | Candida auris; strain IV.5 (No 19), clade IV/Colombia, read-out: MIC values | Candida auris; strain IV.6 (No 20), clade IV/Colombia, read-out: MIC values
0.0625 µg/mL: Candida auris; strain II.1 (No 5), clade II/Japan, read-out: MIC values | Candida auris; strain IV.1 (No 15), clade IV/Colombia, read-out: MIC values
8 µg/mL: Candida auris; strain IV.7 (No 21), clade IV/Colombia, read-out: MIC values | Candida auris; strain IV.8 (No 22), clade IV/Colombia, read-out: MIC values

— US20240317791A1 (priority 2021, published 2024)
